Experimental data as given in article PMC6406907, “A H2AX–CARP-1 Interaction Regulates Apoptosis Signaling Following DNA Damage” (Cancers, 2019).
No end group written: not given here. HA = not defined here

Key:
[1] = test system: caspases-3, -8, -9, and -2; assay: Caspase activity, ApoAlert Caspase profiling plate, MDA-MB-468 sublines; assay type: cell-based, human; settings: for caspase-3 activation in EGFP-peptide-expressing cells: MDA-MB-468 sublines vs EGFP vector subline, Figure 7E,F
Description: Our next objective was to analyze the biological significance of the CARP-1–H2AX interaction in cells. For this purpose, we utilized MDA-MB-468 and HeLa cell lines that stably express myc-His-tagged wild-type CARP-1 or CARP-1 (Δ600–650)-myc-His proteins as detailed in Figure S4 (Supplementary Materials). These sublines were then either untreated (Control, DMSO), or treated with Adriamycin or CFM-4 compound. […] Next, we measured activation of caspases as an apoptosis readout in cells expressing myc-His-tagged wild-type CARP-1 or CARP-1 (Δ600–650) proteins that were either untreated or treated with Adriamycin or CFM compounds as detailed in Section 2. We utilized a lower, 4–5 μM dose of Adriamycin or CFM compounds because a 10 μM Adriamycin dose caused interference in signal output/readout in this particular assay, likely due to background fluorescence that is emitted by higher dose of Adriamycin. Although Adriamycin has a maximum excitation and emission wavelength of 470 and 560 nm, respectively, we found significant fluorescence emission in cells treated with 10 μM Adriamycin at a 380-nm excitation wavelength. Moreover, since caspase activation precedes apoptotic cell death, we utilized a lower dose of Adriamycin to permit a robust measurement of optimal caspase activation in cells undergoing moderate apoptosis with lower/minimal interference by Adriamycin-induced fluorescence signals. […] MDA-MB-468 or HeLa cells that express EGFP or EGFP-H2AX (1–35) were separately treated with Adriamycin, and presence of CARP-1 and γH2AX was determined by immuno-cytochemical staining followed by photography by a confocal microscope as described in Section 2. […]
Figure 7 Disruption of H2AX interaction with CARP-1 results in enhanced viabilities of CFM-4-, CFM-4.16-, or Adriamycin-treated cells in part due to reduced apoptosis. […] The fluorescence released from the activated caspase-dependent cleavage of respective substrate was detected by a plate reader at the excitation and emission wavelengths of 380 nm and 460 nm, respectively, as detailed in Section 2. […]

[2] = test system: MDA-MB-468 cells; assay: MTT cell viability/growth inhibition, MDA-MB-468; assay type: cell-based, human; settings: for cell viability: 10 μM, MDA-MB-468, MTT, mean of three independent experiments; for growth inhibition of EGFP-CARP-1 / EGFP-H2AX (1–35)-expressing cells: MDA-MB-468 sublines vs EGFP-expressing counterparts
Protocol: Routine maintenance and culture of MDA-MB-468 (lacking estrogen receptor; ER and having mutant p53) human triple-negative breast cancer (TNBC) cells, human cervical cancer HeLa, human kidney cancer UOK 262, non-small-cell lung cancer H1975, and HCC827 cells was carried out essentially as described previously. Generation and characterization of MDA-MB-468 cells expressing reduced CARP-1 was described previously. The stable sublines were generated by transfecting the MDA-MB-468 and Hela cells with the pcDNA3 vector, pcDNA3-CARP-1 wild-type (WT)-myc-His clone 6.1.2, pcDNA3-CARP-1(Δ600–650)-myc-His, pcDNA3-EGFP, pcDNA3-EGFP-H2AX (1–35), or pcDNA3-EGFP-CARP-1 (636–650) plasmids, followed by selection in the presence of 800 μg/mL neomycin using described methods. The cell lysates from wild-type, untransfected cells, neomycin-resistant pools, or individual sublines were then subjected to MTT-based viability, confocal, immunoprecipitation (IP), and Western blot (WB) analyses as below.
The cell growth inhibition was assessed using an MTT assay following the established protocols described by us previously.
Here, we utilized human TNBC MDA-MB-468 and human cervical cancer HeLa cells to conduct an MTT-based dose-response analysis using Adriamycin and CFM compounds. […] Since Adriamycin, CFM-4, and CFM-4.16 have molecular masses of 543.3, 404.9, and 440.3, respectively, we chose to use an equimolar dose of each compound in the MTT assays. […] Prior reports established that phosphorylation of H2AX at serine 139 (γ-H2AX) is involved in DNA damage repair and apoptotic signaling by ATM/ATR and JNKs, respectively. Next, the MDA-MB-468, HeLa, and the kidney cancer UOK 262 cells were treated with a 10 μM dose of the CFM-4.16 or Adriamycin for various time periods. The cell lysates from the control, untreated, and treated cells were analyzed by WB for expression of CARP-1, phospho-JNK1/2, phospho-H2AX, and poly ADP ribose polymerase (PARP) proteins. […] The H2AX activation is also indicative of DNA damage and involves pro-apoptotic JNKs. Our data in Figure 1C and Figure S1B,C (Supplementary Materials) also show activation of JNKs; however, a robust JNK activation is co-incident with H2AX phosphorylation following treatments with Adriamycin or CFM-4.16.
Figure 7 Disruption of H2AX interaction with CARP-1 results in enhanced viabilities of CFM-4-, CFM-4.16-, or Adriamycin-treated cells in part due to reduced apoptosis. (A,C,D) Indicated MDA-MB-468 cell lines were treated with DMSO (Control), or with the noted dose and time of Adriamycin, CFM-4, or CFM-4.16 compounds. Determination of viable/live cells was carried out by MTT assay as described in Section 2. (B,E,F) Cell lysates derived from vehicle DMSO (Control), or CFM-4-, CFM-4.16-, or Adriamycin-treated cells were added to the wells that had immobilized fluorogenic substrates of noted caspases. The fluorescence released from the activated caspase-dependent cleavage of respective substrate was detected by a plate reader at the excitation and emission wavelengths of 380 nm and 460 nm, respectively, as detailed in Section 2. The columns in bar charts in panels A, C, D and B, […] represent means of three and two independent experiments, respectively; bars, SE. For panels C and D, * p < 0.05, **p < 0.01 and *** p ≤ 0.001 relative to the respective EGFP vector subline. For panels E and F, *** p ≤ 0.05 relative to the respective EGFP vector subline.
Figure 8 Ectopic expression of TAT-CARP-1 (636–650) peptide results in enhanced viabilities of Adriamycin-treated cells. MDA-MB-468 (A) or HeLa (B) cells were pre-incubated with 300 μg/mL indicated peptides for 72 h, followed by treatments with the noted dose and time of Adriamycin. Determination of viable/live cells was carried out using an MTT assay as described in Section 2. […]

## COc1cccc2c1C(=O)c1c(O)c3c(c(O)c1C2=O)C[C@@](O)(C(=O)CO)C[C@@H]3O[C@H]1C[C@H](N)[C@H](O)[C@H](C)O1 [Adriamycin, doxorubicin, reference compound]
[1]; 4–5 μM, CARP-1 (Δ600–650) vs wild-type CARP-1-expressing cells, mean of two experiments, 380/460 nm
  caspase activation in CARP-1 (Δ600–650) cells: overall reduction in activation of caspases-3, -8, -9, and -2
[2]; 10 μM dose, MDA-MB-468, MTT dose-response, Figure S1A
  cell-growth inhibition: robust cell-growth inhibition
[2]
  cell viability: inhibited viabilities of both the cell lines in a time-dependent manner
[2]; MDA-MB-468 CARP-1 (Δ600–650) vs WT CARP-1-expressing counterparts, MTT, mean of three experiments
  growth inhibition of CARP-1 (Δ600–650)-expressing cells: resistant to inhibition by CFM-4 or ADR
[2]; MTT, mean of three experiments
  growth inhibition of EGFP-CARP-1 / EGFP-H2AX (1–35)-expressing cells: resistant to inhibition by CFM-4.16 or ADR

## O=C1N(Cc2ccccc2Cl)c2ccccc2C12NN=C(c1cccc(Cl)c1)S2 (stereo not shown) [CFM-4.16]
[2]
  cell viability: inhibited viabilities of both the cell lines in a time-dependent manner
[2]; MTT, mean of three experiments
  growth inhibition of EGFP-CARP-1 / EGFP-H2AX (1–35)-expressing cells: resistant to inhibition by CFM-4.16 or ADR

## EGFP-CARP-1 (636–650): EGFP-tagged fusion protein stably expressed in MDA-MB-468 and HeLa sublines (PKTMKVNDLRKELES; also: EGFP fusion kept, end not given here)
[1]
  caspase-3 activation in EGFP-peptide-expressing cells: overall reduction in activation of caspase-3
[2]; MTT, mean of three experiments
  growth inhibition of EGFP-CARP-1 / EGFP-H2AX (1–35)-expressing cells: resistant to inhibition by CFM-4.16 or ADR

## EGFP-H2AX (1–35): EGFP-tagged fusion protein stably expressed in MDA-MB-468 and HeLa sublines (MSGRGKTGGKARAKAKSRSSRAGLQFPVGRVHRLL; also: EGFP fusion, end not given here; UniProt P16104 1-35, looked up, fragment)
[1]
  caspase-3 activation in EGFP-peptide-expressing cells: overall reduction in activation of caspase-3
[2]; MTT, mean of three experiments
  growth inhibition of EGFP-CARP-1 / EGFP-H2AX (1–35)-expressing cells: resistant to inhibition by CFM-4.16 or ADR

## His-TAT-HA-CARP-1 (636–650): His-TAT-HA-tagged CARP-1 (636–650) peptide, >95% purity, commercially synthesized ({His-TAT-HA}-PKTMKVNDLRKELES; reading uncertain; UniProt Q8IX12 636-650, looked up, fragment)
[2]; MDA-MB-468 pre-incubated with 300 μg/mL peptide, 72 h, then Adriamycin, vs EGFP, MTT, mean of three experiments
  viability of Adriamycin-treated cells: moderate, statistically significant increase in viabilities
[2]; cancer cells, abstract
  abrogation of Adriamycin-induced growth inhibition: moderate, statistically significant abrogation of Adriamycin-induced growth inhibition
